Laboratory results reported in paper PMC3810962 (Cancer research, 2012).
Blank lines part the entries; values can stand above or below the compound they belong to.

Legend:
[1] = biological target: T1, ROCK2 (Homo sapiens, UniProt O75116); experiment: ProfilerPro kinase panel, % inhibition at […]; assay type: biochemical; settings: 0.2 µM
[2] = biological target: RSK2 (Homo sapiens, UniProt P51812); experiment: biochemical; settings: read-out: % inhibition
[3] = biological target: T2, PRKX (Homo sapiens, UniProt P51817); experiment: biochemical; settings: read-out: % inhibition
T2 sequence (P51817 1-358): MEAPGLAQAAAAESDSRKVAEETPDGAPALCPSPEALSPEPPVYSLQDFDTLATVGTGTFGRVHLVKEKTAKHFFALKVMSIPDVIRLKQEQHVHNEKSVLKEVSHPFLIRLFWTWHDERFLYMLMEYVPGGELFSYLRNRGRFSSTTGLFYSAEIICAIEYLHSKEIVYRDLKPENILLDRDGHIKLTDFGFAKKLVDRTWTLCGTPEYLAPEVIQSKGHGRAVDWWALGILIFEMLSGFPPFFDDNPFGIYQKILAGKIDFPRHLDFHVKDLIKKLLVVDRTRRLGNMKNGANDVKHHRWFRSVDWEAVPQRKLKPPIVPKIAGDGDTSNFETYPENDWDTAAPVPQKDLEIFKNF

[4] = biological target: T1, ROCK2; experiment: biochemical; settings: read-out: % inhibition
[5] = biological target: T3, PKCepsilon (Homo sapiens, UniProt Q02156); experiment: biochemical; settings: read-out: % inhibition
T3 sequence (Q02156 1-737): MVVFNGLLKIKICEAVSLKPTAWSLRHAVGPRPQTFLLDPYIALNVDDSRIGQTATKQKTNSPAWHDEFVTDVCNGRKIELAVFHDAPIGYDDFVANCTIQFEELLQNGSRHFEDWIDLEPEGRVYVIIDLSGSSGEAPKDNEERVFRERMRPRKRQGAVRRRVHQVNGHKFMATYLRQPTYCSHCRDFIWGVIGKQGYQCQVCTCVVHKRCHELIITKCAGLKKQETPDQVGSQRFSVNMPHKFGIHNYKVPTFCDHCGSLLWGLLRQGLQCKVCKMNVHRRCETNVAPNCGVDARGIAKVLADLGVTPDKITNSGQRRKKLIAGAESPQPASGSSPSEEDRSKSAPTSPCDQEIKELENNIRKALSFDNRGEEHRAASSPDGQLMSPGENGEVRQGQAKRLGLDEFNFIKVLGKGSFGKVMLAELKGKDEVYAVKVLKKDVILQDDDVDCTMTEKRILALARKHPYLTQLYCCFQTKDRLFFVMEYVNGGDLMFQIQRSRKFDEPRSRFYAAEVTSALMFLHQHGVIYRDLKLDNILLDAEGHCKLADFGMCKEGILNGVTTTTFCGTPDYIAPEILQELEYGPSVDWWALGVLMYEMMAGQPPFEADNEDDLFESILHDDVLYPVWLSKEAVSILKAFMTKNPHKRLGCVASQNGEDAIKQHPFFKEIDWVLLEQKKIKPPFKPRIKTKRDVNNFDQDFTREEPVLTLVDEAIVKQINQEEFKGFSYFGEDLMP

[6] = biological target: MNK1 (Homo sapiens, UniProt Q9BUB5); experiment: biochemical; settings: read-out: % inhibition
[7] = biological target: RSK1 (Homo sapiens, UniProt Q15418); experiment: biochemical; settings: read-out: % inhibition
[8] = biological target: T4, PKCtheta (Homo sapiens, UniProt Q04759); experiment: biochemical; settings: read-out: % inhibition
[9] = biological target: T5, PKG1b (Homo sapiens, UniProt Q13976); experiment: biochemical; settings: read-out: % inhibition
T5 sequence (Q13976 1-671): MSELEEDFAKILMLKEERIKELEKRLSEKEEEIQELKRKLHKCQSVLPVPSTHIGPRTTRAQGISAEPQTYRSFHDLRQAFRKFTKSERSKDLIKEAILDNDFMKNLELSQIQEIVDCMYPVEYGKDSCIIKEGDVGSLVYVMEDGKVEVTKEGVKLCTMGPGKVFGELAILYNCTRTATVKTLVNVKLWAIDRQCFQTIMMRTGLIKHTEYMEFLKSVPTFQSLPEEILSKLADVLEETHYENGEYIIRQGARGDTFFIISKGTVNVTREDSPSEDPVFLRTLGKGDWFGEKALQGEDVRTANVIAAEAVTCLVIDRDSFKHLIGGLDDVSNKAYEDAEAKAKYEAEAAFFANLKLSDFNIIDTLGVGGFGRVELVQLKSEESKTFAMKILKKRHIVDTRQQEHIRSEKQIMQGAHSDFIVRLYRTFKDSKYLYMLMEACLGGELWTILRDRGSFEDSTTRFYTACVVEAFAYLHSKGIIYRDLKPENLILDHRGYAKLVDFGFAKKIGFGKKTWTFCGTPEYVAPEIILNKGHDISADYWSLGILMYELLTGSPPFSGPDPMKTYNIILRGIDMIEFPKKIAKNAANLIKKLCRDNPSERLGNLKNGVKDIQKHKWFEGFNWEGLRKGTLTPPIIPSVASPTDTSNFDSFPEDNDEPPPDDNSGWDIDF

[10] = biological target: PKA (Homo sapiens, UniProt P17612); experiment: biochemical; settings: read-out: % inhibition
[11] = biological target: T6, IKKbeta (Homo sapiens, UniProt O14920); experiment: biochemical; settings: read-out: % inhibition
T6 sequence (O14920 1-756): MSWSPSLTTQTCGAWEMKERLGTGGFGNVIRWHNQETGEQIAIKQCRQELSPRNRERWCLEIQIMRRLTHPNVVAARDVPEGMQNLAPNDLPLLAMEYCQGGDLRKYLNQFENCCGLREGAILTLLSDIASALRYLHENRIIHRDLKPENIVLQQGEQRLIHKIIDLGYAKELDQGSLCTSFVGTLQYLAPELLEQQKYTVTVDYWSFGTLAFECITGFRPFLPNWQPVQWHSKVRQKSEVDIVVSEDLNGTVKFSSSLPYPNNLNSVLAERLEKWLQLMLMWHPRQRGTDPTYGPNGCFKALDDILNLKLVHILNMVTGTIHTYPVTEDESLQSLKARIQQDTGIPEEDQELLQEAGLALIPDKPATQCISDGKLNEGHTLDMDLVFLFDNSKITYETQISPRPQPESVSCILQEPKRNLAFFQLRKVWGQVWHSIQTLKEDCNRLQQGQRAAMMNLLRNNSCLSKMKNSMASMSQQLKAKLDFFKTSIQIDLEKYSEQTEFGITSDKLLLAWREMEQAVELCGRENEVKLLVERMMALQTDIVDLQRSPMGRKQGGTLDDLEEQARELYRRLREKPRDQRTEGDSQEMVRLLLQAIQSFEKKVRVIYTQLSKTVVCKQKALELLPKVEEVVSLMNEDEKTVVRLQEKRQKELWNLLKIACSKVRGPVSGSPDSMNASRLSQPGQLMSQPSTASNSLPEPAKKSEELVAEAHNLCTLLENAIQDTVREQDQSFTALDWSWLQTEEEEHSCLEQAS

[12] = biological target: RSK3 (Homo sapiens, UniProt Q15349); experiment: biochemical; settings: read-out: % inhibition
[13] = biological target: T7, ROCK1 (Homo sapiens, UniProt Q13464); experiment: biochemical; settings: read-out: % inhibition
[14] = biological target: PKCbeta1 (Homo sapiens, UniProt P05771); experiment: biochemical; settings: read-out: % inhibition
[15] = biological target: PKCdelta (Homo sapiens, UniProt Q05655); experiment: biochemical; settings: read-out: % inhibition
[16] = biological target: T8, STK10 (Homo sapiens, UniProt O94804); experiment: biochemical; settings: read-out: % inhibition
[17] = biological target: T9, PKG (Homo sapiens, UniProt Q13976); experiment: biochemical; settings: read-out: % inhibition
T9 sequence (Q13976 1-671): T5 sequence (Q13976 1-671)

[18] = biological target: T10, MST1 (Homo sapiens, UniProt Q13043); experiment: biochemical; settings: read-out: % inhibition
T10 sequence (Q13043 1-487): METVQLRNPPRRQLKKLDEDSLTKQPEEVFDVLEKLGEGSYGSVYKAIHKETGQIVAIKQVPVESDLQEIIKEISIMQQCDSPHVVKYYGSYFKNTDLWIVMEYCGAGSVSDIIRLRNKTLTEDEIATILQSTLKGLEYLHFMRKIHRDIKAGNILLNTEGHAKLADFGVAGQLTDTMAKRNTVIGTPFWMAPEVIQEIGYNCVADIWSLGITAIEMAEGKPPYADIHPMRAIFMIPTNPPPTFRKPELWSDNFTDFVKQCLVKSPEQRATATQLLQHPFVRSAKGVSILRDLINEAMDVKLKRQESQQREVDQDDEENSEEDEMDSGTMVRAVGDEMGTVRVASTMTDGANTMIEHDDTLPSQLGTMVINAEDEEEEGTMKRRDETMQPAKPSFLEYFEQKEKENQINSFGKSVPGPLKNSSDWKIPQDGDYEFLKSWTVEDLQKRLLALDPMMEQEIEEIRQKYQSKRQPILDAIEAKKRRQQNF

[19] = biological target: T11, ARK5 (Homo sapiens, UniProt O60285); experiment: biochemical; settings: read-out: % inhibition
T11 sequence (O60285 1-661): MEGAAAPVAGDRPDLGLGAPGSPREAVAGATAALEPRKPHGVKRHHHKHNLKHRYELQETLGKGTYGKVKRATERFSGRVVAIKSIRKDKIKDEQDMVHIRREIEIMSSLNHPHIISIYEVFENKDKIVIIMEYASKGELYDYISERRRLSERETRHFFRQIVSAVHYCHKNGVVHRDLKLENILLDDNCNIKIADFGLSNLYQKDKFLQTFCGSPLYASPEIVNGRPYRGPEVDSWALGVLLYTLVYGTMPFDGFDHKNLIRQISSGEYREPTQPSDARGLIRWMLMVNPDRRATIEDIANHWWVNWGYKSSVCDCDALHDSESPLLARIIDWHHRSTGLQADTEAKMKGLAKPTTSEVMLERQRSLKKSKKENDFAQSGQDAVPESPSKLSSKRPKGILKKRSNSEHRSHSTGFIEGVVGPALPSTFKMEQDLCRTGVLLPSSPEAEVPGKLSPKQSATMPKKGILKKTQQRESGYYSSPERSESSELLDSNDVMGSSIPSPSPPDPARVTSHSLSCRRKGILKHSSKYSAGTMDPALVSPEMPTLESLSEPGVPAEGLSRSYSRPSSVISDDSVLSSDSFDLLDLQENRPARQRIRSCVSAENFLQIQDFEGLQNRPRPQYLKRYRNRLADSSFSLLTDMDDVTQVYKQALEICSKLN

[20] = biological target: T8, STK10; experiment: ProfilerPro kinase panel, % inhibition at […]; assay type: biochemical; settings: 0.2 µM
[21] = biological target: T7, ROCK1; experiment: ProfilerPro kinase panel, % inhibition at […]; assay type: biochemical; settings: 0.2 µM
[22] = biological target: T1, ROCK2; experiment: ProfilerPro kinase panel, % inhibition at […]; assay type: biochemical; settings: read-out: Compound / OXA-06
[23] = biological target: T7, ROCK1; experiment: biochemical; settings: read-out: Compound / OXA-06
[24] = biological target: T8, STK10; experiment: ProfilerPro kinase panel, % inhibition at […]; assay type: biochemical; settings: read-out: Compound / Y27632
[25] = biological target: T4, PKCtheta; experiment: ProfilerPro kinase panel, % inhibition at […]; assay type: biochemical; settings: read-out: Compound / Y27632

T8 sequence (O94804 whole entry): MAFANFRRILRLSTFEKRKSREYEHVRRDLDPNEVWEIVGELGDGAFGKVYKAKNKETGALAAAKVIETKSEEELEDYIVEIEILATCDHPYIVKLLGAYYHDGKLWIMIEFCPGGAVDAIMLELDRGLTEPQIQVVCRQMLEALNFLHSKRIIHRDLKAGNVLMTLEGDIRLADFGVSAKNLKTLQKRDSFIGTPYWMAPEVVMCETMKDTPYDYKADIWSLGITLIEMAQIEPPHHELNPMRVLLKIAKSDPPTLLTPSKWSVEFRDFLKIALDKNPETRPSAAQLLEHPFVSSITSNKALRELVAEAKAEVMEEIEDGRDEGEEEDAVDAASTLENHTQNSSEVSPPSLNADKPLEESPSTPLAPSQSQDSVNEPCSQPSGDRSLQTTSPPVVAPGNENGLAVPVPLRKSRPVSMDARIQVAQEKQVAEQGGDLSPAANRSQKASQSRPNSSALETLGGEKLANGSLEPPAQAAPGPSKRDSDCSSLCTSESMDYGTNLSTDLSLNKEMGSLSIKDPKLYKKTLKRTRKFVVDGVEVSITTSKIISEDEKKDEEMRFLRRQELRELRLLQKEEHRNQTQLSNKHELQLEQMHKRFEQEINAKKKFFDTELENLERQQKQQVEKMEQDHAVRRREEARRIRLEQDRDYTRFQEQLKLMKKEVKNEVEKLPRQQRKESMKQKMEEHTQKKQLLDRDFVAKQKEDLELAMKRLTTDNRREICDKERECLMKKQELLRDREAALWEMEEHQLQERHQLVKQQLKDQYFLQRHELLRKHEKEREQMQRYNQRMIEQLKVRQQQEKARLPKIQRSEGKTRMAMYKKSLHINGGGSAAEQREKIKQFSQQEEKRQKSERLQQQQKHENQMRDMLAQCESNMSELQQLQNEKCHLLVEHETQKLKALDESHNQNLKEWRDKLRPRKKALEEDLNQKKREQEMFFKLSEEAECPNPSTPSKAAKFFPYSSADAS
T1 sequence (O75116 whole entry): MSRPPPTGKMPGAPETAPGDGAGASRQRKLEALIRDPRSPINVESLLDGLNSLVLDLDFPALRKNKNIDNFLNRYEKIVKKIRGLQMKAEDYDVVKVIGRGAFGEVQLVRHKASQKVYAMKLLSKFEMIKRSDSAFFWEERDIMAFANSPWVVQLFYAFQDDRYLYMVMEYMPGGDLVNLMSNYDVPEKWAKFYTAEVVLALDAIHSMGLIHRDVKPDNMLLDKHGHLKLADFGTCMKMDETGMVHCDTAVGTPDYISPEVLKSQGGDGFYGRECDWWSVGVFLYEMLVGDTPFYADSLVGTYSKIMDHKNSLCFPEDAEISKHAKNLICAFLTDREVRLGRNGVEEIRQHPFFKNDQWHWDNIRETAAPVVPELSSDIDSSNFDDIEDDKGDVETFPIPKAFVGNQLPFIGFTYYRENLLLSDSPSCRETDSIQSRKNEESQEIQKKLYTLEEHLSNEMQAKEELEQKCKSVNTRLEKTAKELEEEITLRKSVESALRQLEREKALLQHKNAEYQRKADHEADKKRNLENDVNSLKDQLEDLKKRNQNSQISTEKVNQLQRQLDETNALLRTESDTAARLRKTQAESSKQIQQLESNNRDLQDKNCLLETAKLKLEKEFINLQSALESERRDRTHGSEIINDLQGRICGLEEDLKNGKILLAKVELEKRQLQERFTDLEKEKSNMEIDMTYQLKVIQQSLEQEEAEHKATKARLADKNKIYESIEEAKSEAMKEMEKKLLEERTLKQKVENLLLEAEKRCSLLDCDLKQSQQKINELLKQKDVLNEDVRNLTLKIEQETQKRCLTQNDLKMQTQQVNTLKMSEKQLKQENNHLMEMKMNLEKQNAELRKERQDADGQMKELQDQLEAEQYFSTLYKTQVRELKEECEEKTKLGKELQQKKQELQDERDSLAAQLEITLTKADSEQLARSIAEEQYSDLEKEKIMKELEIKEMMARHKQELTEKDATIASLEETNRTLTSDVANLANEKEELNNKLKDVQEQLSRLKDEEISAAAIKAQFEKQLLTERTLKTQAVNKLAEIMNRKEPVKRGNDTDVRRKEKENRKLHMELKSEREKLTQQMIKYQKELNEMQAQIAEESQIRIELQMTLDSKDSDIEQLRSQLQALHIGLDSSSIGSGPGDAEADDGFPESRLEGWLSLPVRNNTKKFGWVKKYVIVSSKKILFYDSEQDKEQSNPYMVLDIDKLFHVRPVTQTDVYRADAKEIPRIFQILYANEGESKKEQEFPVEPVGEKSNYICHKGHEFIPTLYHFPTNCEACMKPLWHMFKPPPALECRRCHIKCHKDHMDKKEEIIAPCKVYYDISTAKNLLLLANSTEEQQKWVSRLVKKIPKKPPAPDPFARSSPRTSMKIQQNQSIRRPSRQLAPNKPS
PKCdelta, sequence (Q05655 whole entry): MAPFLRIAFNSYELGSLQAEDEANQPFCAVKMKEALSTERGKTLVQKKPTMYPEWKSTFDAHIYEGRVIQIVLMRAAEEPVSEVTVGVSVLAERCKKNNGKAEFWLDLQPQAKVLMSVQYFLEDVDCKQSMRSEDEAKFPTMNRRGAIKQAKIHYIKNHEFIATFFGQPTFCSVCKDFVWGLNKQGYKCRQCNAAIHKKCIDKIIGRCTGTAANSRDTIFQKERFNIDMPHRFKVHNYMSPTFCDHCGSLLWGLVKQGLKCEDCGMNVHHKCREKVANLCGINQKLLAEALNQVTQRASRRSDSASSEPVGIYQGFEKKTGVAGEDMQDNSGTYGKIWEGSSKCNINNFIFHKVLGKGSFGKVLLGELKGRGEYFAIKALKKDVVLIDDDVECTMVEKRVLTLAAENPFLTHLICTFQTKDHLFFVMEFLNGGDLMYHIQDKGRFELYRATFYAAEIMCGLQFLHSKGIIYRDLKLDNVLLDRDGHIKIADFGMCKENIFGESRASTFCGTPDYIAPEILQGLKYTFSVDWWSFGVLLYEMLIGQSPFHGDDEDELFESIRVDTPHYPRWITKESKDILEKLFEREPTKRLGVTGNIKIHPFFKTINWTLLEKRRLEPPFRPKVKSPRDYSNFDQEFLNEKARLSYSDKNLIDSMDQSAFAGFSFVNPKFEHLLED
PKCbeta1, sequence (P05771 whole entry): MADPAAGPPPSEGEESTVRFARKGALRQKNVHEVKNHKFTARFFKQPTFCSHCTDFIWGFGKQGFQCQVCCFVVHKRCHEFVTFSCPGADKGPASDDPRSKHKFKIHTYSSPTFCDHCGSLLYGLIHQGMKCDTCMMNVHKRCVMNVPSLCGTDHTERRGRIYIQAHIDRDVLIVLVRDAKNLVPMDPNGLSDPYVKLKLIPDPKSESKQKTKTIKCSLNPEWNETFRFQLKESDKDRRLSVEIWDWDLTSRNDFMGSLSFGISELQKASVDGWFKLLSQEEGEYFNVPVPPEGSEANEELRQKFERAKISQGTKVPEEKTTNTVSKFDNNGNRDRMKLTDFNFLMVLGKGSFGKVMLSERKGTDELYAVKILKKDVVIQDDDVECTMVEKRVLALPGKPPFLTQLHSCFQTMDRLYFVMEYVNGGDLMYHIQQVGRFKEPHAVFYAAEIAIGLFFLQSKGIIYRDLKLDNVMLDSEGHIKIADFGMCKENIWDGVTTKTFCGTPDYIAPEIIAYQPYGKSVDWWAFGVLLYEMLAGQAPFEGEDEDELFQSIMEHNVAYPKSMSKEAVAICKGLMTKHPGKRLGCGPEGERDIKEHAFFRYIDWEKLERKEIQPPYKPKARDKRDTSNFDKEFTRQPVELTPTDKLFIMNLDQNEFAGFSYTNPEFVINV
RSK3, sequence (Q15349 whole entry): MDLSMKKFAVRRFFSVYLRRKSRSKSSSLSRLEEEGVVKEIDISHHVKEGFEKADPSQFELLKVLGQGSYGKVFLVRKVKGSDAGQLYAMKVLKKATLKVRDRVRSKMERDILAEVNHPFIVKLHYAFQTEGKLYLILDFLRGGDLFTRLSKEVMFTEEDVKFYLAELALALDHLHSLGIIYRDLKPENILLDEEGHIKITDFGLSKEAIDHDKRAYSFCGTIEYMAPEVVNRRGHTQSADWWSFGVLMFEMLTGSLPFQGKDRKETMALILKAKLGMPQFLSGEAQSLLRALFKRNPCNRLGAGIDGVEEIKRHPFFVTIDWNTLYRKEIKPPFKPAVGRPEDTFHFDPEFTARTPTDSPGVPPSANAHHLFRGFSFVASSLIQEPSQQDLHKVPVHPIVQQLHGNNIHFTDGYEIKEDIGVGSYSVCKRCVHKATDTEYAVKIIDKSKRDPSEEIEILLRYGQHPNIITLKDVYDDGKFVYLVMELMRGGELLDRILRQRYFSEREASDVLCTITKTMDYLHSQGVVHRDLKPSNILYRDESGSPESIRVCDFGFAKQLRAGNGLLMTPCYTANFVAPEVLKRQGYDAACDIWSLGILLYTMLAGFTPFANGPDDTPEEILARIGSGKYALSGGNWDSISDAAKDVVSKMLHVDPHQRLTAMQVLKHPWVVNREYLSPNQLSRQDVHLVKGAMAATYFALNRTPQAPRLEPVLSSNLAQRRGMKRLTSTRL
MNK1, sequence (Q9BUB5 whole entry): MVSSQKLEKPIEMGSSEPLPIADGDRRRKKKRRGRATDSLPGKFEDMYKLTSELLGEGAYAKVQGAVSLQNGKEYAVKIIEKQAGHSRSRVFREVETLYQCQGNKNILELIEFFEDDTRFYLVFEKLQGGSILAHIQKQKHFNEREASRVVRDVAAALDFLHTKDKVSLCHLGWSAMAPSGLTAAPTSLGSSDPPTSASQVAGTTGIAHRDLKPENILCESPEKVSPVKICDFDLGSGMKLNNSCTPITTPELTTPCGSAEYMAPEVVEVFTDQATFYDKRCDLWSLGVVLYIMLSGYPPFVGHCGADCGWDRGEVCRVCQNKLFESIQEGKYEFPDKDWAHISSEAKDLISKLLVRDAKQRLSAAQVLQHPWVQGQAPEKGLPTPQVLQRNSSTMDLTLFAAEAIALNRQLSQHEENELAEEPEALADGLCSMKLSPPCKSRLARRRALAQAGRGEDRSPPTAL

Compound / OXA-06 [1]: 95 | inhibition at 0.2 µM [2]: 17% | inhibition at 0.2 µM [3]: 56% | inhibition at 0.2 µM [4]: 95% | inhibition at 0.2 µM [5]: 26% | inhibition at 0.2 µM [6]: 16% | inhibition at 0.2 µM [7]: 6% | inhibition at 0.2 µM [8]: 12% | inhibition at 0.2 µM [9]: 73% | inhibition at 0.2 µM [10]: 98% | inhibition at 0.2 µM [11]: 56% | inhibition at 0.2 µM [12]: 10% | inhibition at 0.2 µM [13]: 94% | inhibition at 0.2 µM [14]: -3% | inhibition at 0.2 µM [15]: 36% | inhibition at 0.2 µM [16]: 58% | inhibition at 0.2 µM [17]: 72% | inhibition at 0.2 µM [18]: 19% | inhibition at 0.2 µM [19]: 56% | Compound / OXA-06 [20]: 58 | Compound / OXA-06 [21]: 94
Structure (SMILES): Fc1ccccc1CNCc1ccc(-c2ccnc3[nH]ccc23)cc1 [OXA-06]

Structure (SMILES): C[C@@H](N)[C@H]1CC[C@H](C(=O)Nc2ccncc2)CC1 [Y-27632]
inhibition at 10 µM [22]: 95% | inhibition at 10 µM [3]: 78% | inhibition at 10 µM [6]: 78% | inhibition at 10 µM [7]: 51% | inhibition at 10 µM [9]: 68% | inhibition at 10 µM [10]: 29% | inhibition at 10 µM [11]: 82% | inhibition at 10 µM [12]: 82% | inhibition at 10 µM [14]: 52% | inhibition at 10 µM [15]: 55% | inhibition at 10 µM [17]: 64% | inhibition at 10 µM [18]: 59% | inhibition at 10 µM [19]: 1% | inhibition at 10 µM [23]: 94% | inhibition at 10 µM [24]: 87% | inhibition at 10 µM [25]: 82%
